Measurements: US4986985A, “Method of treating skin virus infections” (Bar Ilan University, priority 1987, dated 1991)

Each compound was assayed on peroxide level in the skin (assay: TBA test of peroxide level in skin of adult mice after topical application). Conditions: 0.1% dissolved in Oil of Olay, similar experiments.
Assay type: in vivo
Excerpt: Samples of lotions and appropriate controls were applied to mice or rat skin for a fixed period. The application was done once a day. Experiments were terminated by killing the animal, peeling the skin and freezing it in liquid nitrogen. Samples of the frozen skin were homogenized in 0.2M phosphate buffer, pH 6.5. After centrifugation, the supernatant was collected and analyzed for the peroxide value using the TBA (thiobarbituric acid) test as described by Sinnhuber et al, Food Res. 23: 620 (1958). In the experiments which follow, newborn (hairless) rats were used. It is generally considered that the penetration through the skin of newborn rats is better than in adult rats, since at this stage they have not yet developed any fur.
In these experiments adult mice (2 months old) were treated as described in Example 2. The grown mice were shaved before applying the lotions to the skin.
In this experiment the antioxidant was dissolved in Oil of Olay. Mice were sacrificed after 21 days.

| Compound | reduction of the level of peroxides |
| --- | --- |
| COc1ccc(O)c(C(C)(C)C)c1 [BHA] | no reduction of the level of peroxides was observed |
| Cc1c(C)c2c(c(C)c1O)CCC(C)(CCCC(C)CCCC(C)CCCC(C)C)O2 (stereo not drawn) [alpha tocopherol] | no reduction of the level of peroxides was observed |
| Cc1cc(C(C)(C)C)c(O)c(C(C)(C)C)c1 [BHT] | no reduction of the level of peroxides was observed |
